Data: patent publication US10294202B2, “Pyrrolidinones as herbicides” (FMC Corporation, priority 2013, dated 2019)

Key:
[1] = test system: pigweed; assay: Test A pre-/postemergence herbicide test; type: in vivo, Amaranthus retroflexus; conditions: for Plant response rating, Pigweed: 0 to 100 scale
Outline: (§1)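 Visual injury ratings, 0 = no effect, 100 = complete control, taken ~10 days after treatment against untreated greenhouse controls. Preemergence: directed soil spray onto seeded loam/sand pots. Postemergence: spray onto plants at one- to two-leaf stage, 2–10 cm tall.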

[2] = test system: morningglory; assay: Test C pre-/postemergence herbicide test; type: in vivo, Ipomoea coccinea
Outline: (§2)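 Pre- and postemergence greenhouse screen. Preemergence treatment went onto freshly planted seeds in loam–sand soil; postemergence treatment went onto plants 2 to 18 cm tall at the 1- to 4-leaf stage in sphagnum peat/vermiculite medium. Scoring at 13 to 15 days used a 0–100 control scale.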

[3] = test system: waterhemp; assay: Test C pre-/postemergence herbicide test; type: in vivo, Amaranthus rudis
Outline: as §2

[4] = test system: giant foxtail; assay: Test A pre-/postemergence herbicide test; type: in vivo, Setaria faberii; conditions: for Plant response rating, Foxtail, Giant: 0 to 100 scale
Outline: as §1

[5] = test system: barnyardgrass; assay: Test C pre-/postemergence herbicide test; type: in vivo, Echinochloa crus-galli
Outline: as §2

[6] = test system: foxtail, giant; assay: Test C pre-/postemergence herbicide test; type: in vivo, Setaria faberii
Outline: as §2

[7] = test system: barnyardgrass; assay: Test A pre-/postemergence herbicide test; type: in vivo, Echinochloa crus-galli; conditions: for Plant response rating, Barnyardgrass: 0 to 100 scale
Outline: as §1

[8] = test system: velvetleaf; assay: Test C pre-/postemergence herbicide test; type: in vivo, Abutilon theophrasti
Outline: as §2

[9] = test system: crabgrass, large; assay: Test C pre-/postemergence herbicide test; type: in vivo, Digitaria sanguinalis
Outline: as §2

[10] = test system: oat, wild; assay: Test C pre-/postemergence herbicide test; type: in vivo, Avena fatua; conditions: Postemergence
Outline: as §2

[11] = test system: lambsquarters; assay: Test C pre-/postemergence herbicide test; type: in vivo, Chenopodium album
Outline: as §2

[12] = test system: galium; assay: Test C pre-/postemergence herbicide test; type: in vivo, Galium aparine
Outline: as §2

[13] = 125 g ai/ha, visual rating, 0 no effect, 100 complete control, approximately 10 days, preemergence
[14] = Postemergence, 125 g ai/ha, 0 is no effect, 100 is complete control
[15] = preemergence, 500 g ai/ha, 0 is no effect and 100 is complete control
[16] = Postemergence, 31 g ai/ha, scale 0 to 100 (0 no effect, 100 complete control)
[17] = Postemergence, 62 g ai/ha, scale 0 (no effect) to 100 (complete control)
[18] = Postemergence, 125 g ai/ha, scale 0 to 100 (0 no effect, 100 complete control)
[19] = Postemergence, 250 g ai/ha, scale 0 to 100 (0 no effect, 100 complete control)
[20] = Preemergence, 31 g ai/ha, scale 0 to 100, 0 is no effect and 100 is complete control
[21] = Preemergence, 62 g ai/ha, scale 0 to 100 (0 no effect, 100 complete control)
[22] = Preemergence, 125 g ai/ha, scale 0 to 100 (0 no effect, 100 complete control)

O=C1NCC(c2cccc(C(F)(F)F)c2)C1C(=O)Nc1ccc(F)cc1F (racemic) [Compound 207]
0: Plant response rating, Pigweed [1, 13] | Plant response rating, Pigweed [1, 14] | Pigweed plant response rating (0 to 100 scale, 0 is no effect, 100 is complete control) ([1]; Postemergence, 500 g ai/ha) | Morningglory plant response rating [2, 20] | Morningglory plant response rating [2, 21] | Plant response rating, Morningglory [2, 22] | Plant response rating (scale of 0 to 100), Morningglory ([2]; Preemergence, 250 g ai/ha) | Plant response rating, Waterhemp [3, 16] | Plant response rating, Waterhemp [3, 17] | Plant response rating, Waterhemp [3, 18] | Waterhemp plant response rating [3, 20] | Waterhemp plant response rating [3, 21] | Plant response rating, Barnyardgrass [5, 16] | Plant response rating, Foxtail, Giant [6, 17] | Plant response rating, Velvetleaf [8, 16] | Plant response rating, Velvetleaf [8, 17] | Plant response rating, Velvetleaf [8, 18] | Plant response rating, Velvetleaf [8, 19] | Velvetleaf plant response rating [8, 20] | Velvetleaf plant response rating [8, 21] | Plant response rating, Velvetleaf [8, 22] | Plant response rating (scale of 0 to 100), Velvetleaf ([8]; Preemergence, 250 g ai/ha) | Plant response rating, Oat, Wild ([10]; 31 g ai/ha, scale 0 to 100 (0 no effect, 100 complete control)) | Plant response rating, Oat, Wild ([10]; 62 g ai/ha, scale 0 (no effect) to 100 (complete control)) | Plant response rating, Oat, Wild ([10]; 125 g ai/ha, scale 0 to 100 (0 no effect, 100 complete control)) | Plant response rating, Oat, Wild ([10]; 250 g ai/ha, scale 0 to 100 (0 no effect, 100 complete control)) | Plant response rating, Lambsquarters [11, 16] | Lambsquarters plant response rating [11, 20] | Lambsquarters plant response rating [11, 21] | Plant response rating, Galium [12, 16] | Plant response rating, Galium [12, 17] | Plant response rating, Galium [12, 18] | Galium plant response rating [12, 20] | Galium plant response rating [12, 21]
5: Plant response rating, Morningglory [2, 16] | Plant response rating, Morningglory [2, 17] | Plant response rating, Morningglory [2, 18]
35: Plant response rating, Barnyardgrass [5, 18] | Plant response rating, Lambsquarters [11, 18]
90: Plant response rating, Foxtail, Giant [4, 13] | Plant response rating, Foxtail, Giant [4, 14] | Foxtail, Giant plant response rating (0 to 100 scale, 0 is no effect, 100 is complete control) ([4]; Postemergence, 500 g ai/ha) | Plant response rating, Foxtail, Giant [4, 15] | Foxtail, Giant plant response rating [6, 21] | Plant response rating, Foxtail, Giant [6, 22] | Plant response rating, Barnyardgrass [7, 13] | Barnyardgrass plant response rating (0 to 100 scale, 0 is no effect, 100 is complete control) ([7]; Postemergence, 500 g ai/ha) | Plant response rating, Barnyardgrass [7, 15] | Crabgrass, Large plant response rating [9, 20] | Crabgrass, Large plant response rating [9, 21] | Plant response rating (scale of 0 to 100), Galium ([12]; Preemergence, 250 g ai/ha)
95: Plant response rating (scale of 0 to 100; 0 is no effect, 100 is complete control), Barnyardgrass ([5]; Preemergence, 250 g ai/ha) | Plant response rating, Crabgrass, Large [9, 22] | Plant response rating (scale of 0 to 100), Crabgrass, Large ([9]; Preemergence, 250 g ai/ha)
75: Plant response rating (scale of 0 to 100), Waterhemp ([3]; Preemergence, 250 g ai/ha) | Barnyardgrass plant response rating [5, 20] | Plant response rating, Foxtail, Giant [6, 19]
10: Plant response rating, Waterhemp [3, 19] | Plant response rating, Barnyardgrass [5, 17] | Plant response rating, Crabgrass, Large [9, 16] | Plant response rating, Lambsquarters [11, 17]
70: Plant response rating (scale of 0 to 100), Lambsquarters ([11]; Preemergence, 250 g ai/ha)
60: Plant response rating, Lambsquarters [11, 22]
80: Plant response rating, Barnyardgrass [7, 14]
40: Plant response rating, Crabgrass, Large [9, 18]
50: Plant response rating, Galium [12, 19]
98: Plant response rating (scale of 0 to 100), Foxtail, Giant ([6]; Preemergence, 250 g ai/ha)
65: Plant response rating, Barnyardgrass [5, 19] | Plant response rating, Foxtail, Giant [6, 18] | Plant response rating, Crabgrass, Large [9, 19]
20: Plant response rating, Pigweed [1, 15] | Plant response rating, Morningglory [2, 19] | Plant response rating, Foxtail, Giant [6, 16]
15: Plant response rating, Crabgrass, Large [9, 17] | Plant response rating, Lambsquarters [11, 19]
85: Plant response rating, Waterhemp [3, 22] | Plant response rating, Barnyardgrass ([5]; Preemergence, 62 g ai/ha, scale 0 to 100) | Plant response rating, Barnyardgrass [5, 22] | Foxtail, Giant plant response rating [6, 20] | Plant response rating, Galium [12, 22]
